According to patent US7476673B2, “Disubstituted chalcone oximes as selective agonists of RARγ retinoid receptors” (Allergan, Inc., priority 2003, dated 2009):

Legend:
RARα [1] = molecular target: T1, RARα (Homo sapiens, UniProt P10276); assay: ligand binding assay, RARα; settings: results expressed in Ki numbers, read-out: RAR Binding α
T1 sequence (P10276 1-462): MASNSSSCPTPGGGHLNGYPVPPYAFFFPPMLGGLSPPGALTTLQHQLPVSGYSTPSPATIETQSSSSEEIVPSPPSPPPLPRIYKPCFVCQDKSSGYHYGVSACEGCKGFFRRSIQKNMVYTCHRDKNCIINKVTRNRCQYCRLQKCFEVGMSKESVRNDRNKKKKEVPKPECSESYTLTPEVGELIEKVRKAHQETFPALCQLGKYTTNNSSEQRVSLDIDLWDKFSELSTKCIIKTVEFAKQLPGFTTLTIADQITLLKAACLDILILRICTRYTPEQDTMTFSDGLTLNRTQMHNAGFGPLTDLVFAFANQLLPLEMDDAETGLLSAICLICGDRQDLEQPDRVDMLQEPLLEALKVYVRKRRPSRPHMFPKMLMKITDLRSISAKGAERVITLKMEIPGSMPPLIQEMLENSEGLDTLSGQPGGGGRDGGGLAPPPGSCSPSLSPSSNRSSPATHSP
Source text: (§1) A holoreceptor transactivation assay and a ligand binding assay which measure the antagonist/agonist like activity of the compounds of the invention, or their ability to bind to the several retinoid receptor subtypes, respectively, are described in published PCT Application No. WO WO93/11755 (particularly on pages 30-33 and 37-41) published on Jun. 24, 1993, the specification of which is also incorporated herein by reference. A detailed experimental procedure for holoreceptor transactivations has been described by Heyman et al. Cell 68, 397-406, (1992); Allegretto et al. J. Biol. Chem. 268, 26625-26633, and Mangelsdorf et al. The Retinoids: Biology, Chemistry and Medicine, pp 319-349, Raven Press Ltd., New York, which are expressly incorporated herein by reference. The results obtained in this assay are expressed in EC50 numbers, as they are also in the chimeric receptor transactivation assay. The results of the ligand binding assay are expressed in Ki numbers. (See Cheng et al. Biochemical Pharmacology Vol. 22 pp 3099-3108, expressly incorporated herein by reference.)
(§2) Table 1 discloses the activity of certain exemplary compounds of the invention in the above-described chimeric RAR receptor transactivation and binding assays.

RARγ [2] = molecular target: T2, RARγ (Homo sapiens, UniProt P13631); assay: chimeric receptor transactivation assay, RARγ; format: cell-based; settings: for EC50: chimeric receptor transactivation, read-out: RAR EC50 γ; for % Efficiency γ: percentage of maximum compared to standard TTNPB
T2 construct: % Efficiency γ; other: percentage of maximum compared to standard TTNPB
T2 sequence (P13631 185-454 limits assumed): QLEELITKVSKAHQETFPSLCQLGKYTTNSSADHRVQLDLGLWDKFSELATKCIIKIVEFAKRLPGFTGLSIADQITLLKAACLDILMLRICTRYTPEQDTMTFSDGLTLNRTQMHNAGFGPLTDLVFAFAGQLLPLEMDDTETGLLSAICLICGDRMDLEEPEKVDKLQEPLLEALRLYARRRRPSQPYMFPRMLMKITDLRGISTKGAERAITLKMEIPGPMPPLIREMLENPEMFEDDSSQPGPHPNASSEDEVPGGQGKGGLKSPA
Description: (§3) The compounds of the invention were tested in certain assays for activity as agonists of RAR and RXR retinoid receptors. Specifically, one such assay is a chimeric receptor transactivation assay which tests for agonist-like activity in the RARα, RARβ and RARγ receptor subtypes, and which is based on work published by Feigner P. L. and Holm M. (1989) Focus, 112 is described in detail in U.S. Pat. No. 5,455,265. The specification of U.S. Pat. No. 5,455,265 is hereby expressly incorporated by reference.
as §1
(§4) Efficacy in a transactivation assay is expressed as a percentage of the maximum potency attained by the compound compared to a standard which, in this case, is the compound 4-[(1E)-2-(5,6,7,8-tetrahydro-5,5,8,8-tetramethyl-2-naphthalenyl)-1-propenyl]-benzoic acid. (TTNPB) This standard compound is described in PCT Publication WO 2002077169 A2.
as §2

RARγ [3] = molecular target: T3, RARγ (Homo sapiens, UniProt P13631); assay: ligand binding assay, RARγ; settings: results expressed in Ki numbers, read-out: RAR Binding γ
T3 sequence (P13631 1-454): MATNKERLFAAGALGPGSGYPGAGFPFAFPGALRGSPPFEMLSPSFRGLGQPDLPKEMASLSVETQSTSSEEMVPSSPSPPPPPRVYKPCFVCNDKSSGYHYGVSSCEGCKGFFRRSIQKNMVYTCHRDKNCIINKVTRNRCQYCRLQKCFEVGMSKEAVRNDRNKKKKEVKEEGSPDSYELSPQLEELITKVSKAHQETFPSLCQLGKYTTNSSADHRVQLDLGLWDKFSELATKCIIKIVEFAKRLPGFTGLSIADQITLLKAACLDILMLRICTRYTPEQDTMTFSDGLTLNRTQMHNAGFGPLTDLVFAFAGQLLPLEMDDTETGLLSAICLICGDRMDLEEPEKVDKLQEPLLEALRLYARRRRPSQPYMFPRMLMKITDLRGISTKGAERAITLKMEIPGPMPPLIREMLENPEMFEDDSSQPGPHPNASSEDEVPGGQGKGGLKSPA
Source text: as §1, §2

RARβ [4] = molecular target: T4, RARβ (Homo sapiens, UniProt P10826); assay: chimeric receptor transactivation assay, RARβ; format: cell-based; settings: for EC50: chimeric receptor transactivation, read-out: RAR EC50 β; for % Efficiency β: percentage of maximum compared to standard TTNPB
T4 sequence (P10826 183-455 limits assumed): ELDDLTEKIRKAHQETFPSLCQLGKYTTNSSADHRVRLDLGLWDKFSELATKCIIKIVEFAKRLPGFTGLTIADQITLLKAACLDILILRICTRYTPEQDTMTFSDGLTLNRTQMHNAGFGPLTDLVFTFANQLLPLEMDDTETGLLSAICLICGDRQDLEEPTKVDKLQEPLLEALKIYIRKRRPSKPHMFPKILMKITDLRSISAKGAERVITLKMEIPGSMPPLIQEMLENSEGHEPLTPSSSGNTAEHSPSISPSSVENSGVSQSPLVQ
Description: as §3, §1, §4, §2

RARβ [5] = molecular target: T5, RARβ (Homo sapiens, UniProt P10826); assay: ligand binding assay, RARβ; settings: results expressed in Ki numbers, read-out: RAR Binding β
T5 sequence (P10826 1-455): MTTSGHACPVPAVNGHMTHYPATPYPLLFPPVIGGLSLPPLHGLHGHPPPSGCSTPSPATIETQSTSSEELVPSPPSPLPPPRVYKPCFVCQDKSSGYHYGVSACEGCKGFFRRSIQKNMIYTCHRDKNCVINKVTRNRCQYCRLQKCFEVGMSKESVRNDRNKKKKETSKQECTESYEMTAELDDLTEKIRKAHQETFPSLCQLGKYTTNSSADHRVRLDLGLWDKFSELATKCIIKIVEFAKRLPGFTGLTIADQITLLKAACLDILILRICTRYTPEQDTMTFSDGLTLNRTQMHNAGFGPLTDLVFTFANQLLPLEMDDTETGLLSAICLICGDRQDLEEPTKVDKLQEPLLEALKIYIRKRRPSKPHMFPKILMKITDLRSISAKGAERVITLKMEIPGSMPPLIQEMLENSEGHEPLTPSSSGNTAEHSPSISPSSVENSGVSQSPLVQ
Source text: as §1, §2

RARα [6] = molecular target: T6, RARα (Homo sapiens, UniProt P10276); assay: chimeric receptor transactivation assay, RARα; format: cell-based; settings: for EC50: chimeric receptor transactivation, read-out: RAR EC50 α; for % Efficiency α: percentage of maximum compared to standard TTNPB
T6 sequence (P10276 183-417 limits assumed): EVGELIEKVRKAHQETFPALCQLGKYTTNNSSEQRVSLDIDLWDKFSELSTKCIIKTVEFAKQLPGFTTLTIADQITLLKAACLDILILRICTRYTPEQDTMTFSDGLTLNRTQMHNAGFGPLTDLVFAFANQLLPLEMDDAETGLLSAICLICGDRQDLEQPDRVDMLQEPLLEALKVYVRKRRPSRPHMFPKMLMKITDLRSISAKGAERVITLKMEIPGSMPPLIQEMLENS
Description: as §3, §1, §4, §2

Compound | Ki (RARα [1]) | EC50 (RARγ [2]) | % Efficiency γ (RARγ [2]) | Ki (RARγ [3]) | EC50 (RARβ [4]) | % Efficiency β (RARβ [4]) | Ki (RARβ [5]) | EC50 (RARα [6]) | % Efficiency α (RARα [6])
COc1cc2c(cc1C(/C=C/c1ccc(C(=O)O)cc1)=N/O)C(C)(C)CCC2(C)C | 2000 nM | 19 nM | 98% | 648 nM | 1270 nM | 65% | 2500 nM | 80000 nM | 29%
CC1(C)CCCc2cc(C(C=Cc3ccc(C(=O)O)cc3)=NO)ccc21 [drawing 16] | 2000 nM | > 10000 nM | – | 6000 nM | > 10000 nM | – | > 10000 nM | > 10000 nM | –
CC1=CCC(C)(C)c2cc(C(/C=C/c3ccc(C(=O)O)cc3)=N\O)ccc21 | 4000 nM | 4 nM | 95% | 36 nM | 94 nM | 104% | 3000 nM | 515 nM | 50%
CC1(C)CC(C)(C)c2cc(C(C=Cc3ccc(C(=O)O)cc3)=NO)ccc21 [drawing 31] | 6000 nM | 2 nM | 91% | 39 nM | 93 nM | 118% | 11000 nM | 134 nM | 55%
CC1(C)CC(C)(C)c2cc(C(/C=C/c3ccc(C(=O)O)cc3F)=N\O)ccc21 | 13000 nM | 9 nM | 79% | 264 nM | 249 nM | 82% | 27000 nM | > 1000 nM | –
CC1(C)CCC(C)(C)c2cc(C(C=Cc3ccc(C(=O)O)cc3F)=NO)ccc21 [drawing 10] | 8000 nM | 0.11 nM | 84% | 4 nM | 53 nM | 84% | 5000 nM | > 1000 nM | –
CC1(C)CCSc2ccc(C(C=Cc3ccc(C(=O)O)cc3)=NO)cc21 [drawing 20] | 4500 nM | 15 nM | 100% | 55 nM | 103 nM | 102% | 1230 nM | > 1000 nM | –
CC1(C)CCCc2ccc(C(C=Cc3ccc(C(=O)O)cc3)=NO)cc21 [drawing 12] | 6000 nM | 0.09 nM | 97% | 5 nM | 65 nM | 106% | 1200 nM | 2120 nM | 51%
